Counter-ions that a name gives are not always drawn. Like-named read-outs stand apart in the source and are kept apart here.

The nature of data set [1]: Determination of the log P values (formic acid method). Here is the method: 1) Description of Method for Determination of the log P Values (Formic Aid Method)
Eluents for determination in the acidic range (pH 3.4):
Eluent A: acetonitrile+1 ml of formic acid/liter. Eluent B: water+0.9 ml of formic acid/liter.
The lambda max values were determined in the maxima of the chromatographic signals using the UV spectra from 200 nm to 400 nm.

For a further data set, the system named is Myzus persicae. Kind of data set: Myzus test (spray treatment). It is filed as in vivo. The conditions noted are these: foliar, read-out: efficacy in % (aphids killed). Here is the method:
Solvent 78 parts by weight of acetone • • 1.5 parts by weight of dimethylformamide
Emulsifier: 0.5 part by weight of alkylaryl polyglycol ether
To prepare an appropriate active ingredient preparation, 1 part by weight of active ingredient is mixed with the stated amounts of solvent and emulsifier, and the concentrate is diluted with emulsifier-containing water to the desired concentration.

The mark [2] stands for this setting: reverse-phase C18 HPLC column, pH 3.4, log P (HCOOH), preparation examples, HPLC-MS.
The mark [3] stands for this setting: application rate 500 g/ha, sprayed Chinese cabbage leaf discs, all stages of green peach aphid.
[4] abbreviates: reverse-phase C18 HPLC column, pH 3.4, logP (HCOOH), final compounds table, HPLC reverse-phase C18, acidic range pH 3.4, 55° C.
The mark [5] stands for this setting: reverse-phase C18 HPLC column, pH 3.4, logP (HCOOH), intermediates tables, HPLC reverse-phase C18, acidic range pH 3.4, 55° C.

Regarding `Brc1cnn(-c2cccnc2)c1` [3-(4-Bromopyrazol-1-yl)pyridine], the chromatographic logP (commonly a lipophilicity value derived from retention on a column) in data set [1] (setting [2]) came to 1.56.
Compound `Cc1nc(-c2cncc(F)c2)sc1-c1cc(C(=O)O)n(C)n1` [3-[2-(5-Fluoropyridin-3-yl)-4-methyl-1,3-thiazol-5-yl]-1-methyl-1H-pyrazole-5-carboxylic acid] had a chromatographic logP in data set [1] (setting [2]) of 2.05.
`CC1(C)OB(c2cnn(-c3cccnc3)c2)OC1(C)C` [3-[4-(4,4,5,5-Tetramethyl-[1,3,2]dioxaborolan-2-yl)pyrazol-1-yl]pyridine] registered a chromatographic logP in data set [1] (pH 3.4, log P (HCOOH)) of 2.19.
In data set [1] (setting [2]), `Nc1cccc(-c2cnn(-c3cccnc3)c2)n1` [6-[1-(Pyridin-3-yl)-1H-pyrazol-4-yl]pyridine-2-amine] showed a chromatographic logP of 0.3.
`N#Cc1cccc(-c2cnc(-c3cncc(F)c3)s2)n1` [6-[2-(5-Fluoropyridin-3-yl)-1,3-thiazol-5-yl]pyridine-2-carbonitrile] displayed a chromatographic logP in data set [1] (setting [2]) of 2.51.
On the same count and under the same terms, then `O=C(O)c1cccc(-c2cnc(-c3cncc(F)c3)s2)n1` [6-[2-(5-Fluoropyridin-3-yl)-1,3-thiazol-5-yl]pyridine-2-carboxylic acid], with 1.72.
`CS(=O)(=O)Nc1cccc(-c2cnn(-c3cccnc3)c2)n1` [Compound 1, N-{6-[1-(Pyridin-3-yl)-1H-pyrazol-4-yl]pyridin-2-yl}methanesulphonamide]: in the data set with Myzus persicae (setting [3]), the pest or weed control at 500 g/ha stood at 80%. The chromatographic logP in data set [1] (pH 3.4, log P (HCOOH)) was 1.26; in data set [1] (pH 3.4, logP (HCOOH)) it was 1.26.
With `O=C(NS(=O)(=O)C(F)(F)F)c1cccc(-c2cnc(-c3cncc(F)c3)s2)n1` [Compound 2, 6-[2-(5-Fluoropyridin-3-yl)-1,3-thiazol-5-yl]-N-[(trifluoromethyl)sulphonyl]pyridine-2-carboxamide], in the data set on Myzus persicae (setting [3]), the pest or weed control at 500 g/ha was found to be 100%. Moreover, the chromatographic logP came out at 1.86 in data set [1] (pH 3.4, log P (HCOOH)) and 1.86 in data set [1] (pH 3.4, logP (HCOOH)).
Take `CS(=O)(=O)NC(=O)c1cccc(-c2nnc(-c3cncc(F)c3)s2)n1` [Compound 3, 6-[5-(5-Fluoropyridin-3-yl)-1,3,4-thiadiazol-2-yl]-N-(methylsulphonyl)pyridine-2-carboxamide]: the pest or weed control at 500 g/ha in the data set on Myzus persicae (setting [3]) amounted to 100%. Further, the chromatographic logP worked out at 1.79 in data set [1] (pH 3.4, log P (HCOOH)) and 1.79 in data set [1] (pH 3.4, logP (HCOOH)).
Compound `CS(=O)(=O)NC(=O)c1cccc(-c2cnn(-c3cncc(F)c3)c2)n1` [Compound 4, 6-[1-(5-Fluoropyridin-3-yl)-1H-pyrazol-4-yl]-N-(methylsulphonyl)pyridine-2-carboxamide] displayed a chromatographic logP in data set [1] (setting [2]) of 1.98.
As for `O=C(NS(=O)(=O)C1CC1)c1cccc(-c2cnc(-c3cncc(F)c3)s2)n1` [Compound 6], the pest or weed control at 500 g/ha in the data set on Myzus persicae (setting [3]) was 100%. In data set [1] (pH 3.4, logP (HCOOH)), this compound returned a chromatographic logP of 2.44.
For `CCS(=O)(=O)NC(=O)c1cccc(-c2cnn(-c3cncnc3)c2)n1` [Compound 7], the pest or weed control at 500 g/ha in the data set with Myzus persicae (setting [3]) amounted to 100%. In data set [1] (pH 3.4, logP (HCOOH)), this compound showed a chromatographic logP of 1.63.
With `CS(=O)(=O)NC(=O)c1cccc(-c2cnc(-c3cncnc3)s2)n1` [Compound 8], the pest or weed control at 500 g/ha in the data set with Myzus persicae (setting [3]) worked out at 100%. The compound also showed a chromatographic logP in data set [1] (setting [4]) of 1.48.
With `CS(=O)(=O)NC(=O)c1cccc(-c2cnc(-c3cncc(F)c3)s2)n1` [Compound 9], the pest or weed control at 500 g/ha with Myzus persicae (setting [3]) amounted to 100%. The compound also displayed a chromatographic logP in data set [1] (pH 3.4, logP (HCOOH)) of 2.05.
The matching figures for `COCCS(=O)(=O)Nc1cccc(-c2cnn(-c3cccnc3)c2)n1` [Compound 10]: 80% and 1.43.
On to `O=C(NS(=O)(=O)C(F)F)c1cccc(-c2cnc(-c3cncc(F)c3)s2)n1` [Compound 11], for which the pest or weed control at 500 g/ha with Myzus persicae (setting [3]) is 100%. The compound also registered a chromatographic logP in data set [1] (setting [4]) of 1.79.
Take `CS(=O)(=O)NC(=O)c1cccc(-c2cnc(-c3cccnc3)s2)n1` [Compound 12]: the pest or weed control at 500 g/ha in the data set on Myzus persicae (setting [3]) was determined as 100%. Further, in data set [1] (pH 3.4, logP (HCOOH)), the chromatographic logP turned out to be 1.56.
Consider `O=C(NS(=O)(=O)c1ccccc1)c1cccc(-c2cnc(-c3cncc(F)c3)s2)n1` [Compound 13], for which the pest or weed control at 500 g/ha with Myzus persicae (setting [3]) is 100%. In data set [1] (setting [4]), this compound yielded a chromatographic logP of 2.94.
Turning to `CS(=O)(=O)N(c1cccc(-c2cnn(-c3cncc(F)c3)c2)n1)S(C)(=O)=O` [Compound 14], the pest or weed control at 500 g/ha in the data set with Myzus persicae (setting [3]) turned out to be 90%. For the same compound, the chromatographic logP in data set [1] (pH 3.4, logP (HCOOH)) turned out to be 2.15.
`CN(C)S(=O)(=O)NC(=O)c1cccc(-c2cnn(-c3cncc(F)c3)c2)n1` [Compound 16]: the pest or weed control at 500 g/ha in the data set on Myzus persicae (setting [3]) was found to be 100%. The same compound had a chromatographic logP in data set [1] (setting [4]) of 2.42.
Turning to `CS(=O)(=O)NC(=O)c1cccc(-c2cnc(-c3cncc(Cl)c3)s2)n1` [Compound 17], in the data set with Myzus persicae (setting [3]), the pest or weed control at 500 g/ha amounted to 100%. Moreover, the chromatographic logP in data set [1] (setting [4]) amounted to 2.4.
For the compound `CCS(=O)(=O)NC(=O)c1cccc(-c2cnc(-c3cncc(F)c3)s2)n1` [Compound 18], the pest or weed control at 500 g/ha in the data set with Myzus persicae (setting [3]) amounted to 100%. Besides, in data set [1] (setting [4]), the chromatographic logP amounted to 2.33.
On to `CCS(=O)(=O)Nc1cccc(-c2cnn(-c3cccnc3)c2)n1` [Compound 19], for which the pest or weed control at 500 g/ha with Myzus persicae (setting [3]) amounted to 100%. For the same compound, in data set [1] (pH 3.4, logP (HCOOH)), the chromatographic logP turned out to be 1.48.
As for `CC(C)S(=O)(=O)NC(=O)c1cccc(-c2cnc(-c3cncc(F)c3)s2)n1` [Compound 20], the pest or weed control at 500 g/ha in the data set with Myzus persicae (setting [3]) came out at 100%. The same compound registered a chromatographic logP in data set [1] (setting [4]) of 2.61.
As to `O=C(NS(=O)(=O)Cc1ccccc1)c1cccc(-c2cnc(-c3cncc(F)c3)s2)n1` [Compound 21], in the data set with Myzus persicae (setting [3]), the pest or weed control at 500 g/ha was found to be 80%. The compound also returned a chromatographic logP in data set [1] (pH 3.4, logP (HCOOH)) of 2.97.
The matching figures for `CS(=O)(=O)NC(=O)c1cccc(-c2cnn(-c3cncnc3)c2)n1` [Compound 22]: 100% and 1.38.
With `N=C(N)c1cccc(-c2cnc(-c3cccnc3)s2)n1` [Compound 48], the pest or weed control at 500 g/ha in the data set with Myzus persicae (in Brassica rapa) came to 90%.
`N=C(N)c1cccc(-c2cnc(-c3cncc(F)c3)s2)n1` [Compound 79, 6-[2-(5-Fluoropyridin-3-yl)-1,3-thiazol-5-yl]pyridine-2-carboxamide amide hydrochloride (1:1)] yielded a chromatographic logP in data set [1] (setting [2]) of 0.71.
In turn, `CCOC(=O)c1cc(-c2sc(-c3cncc(F)c3)nc2C)nn1C` [Ethyl 3-[2-(5-fluoropyridin-3-yl)-4-methyl-1,3-thiazol-5-yl]-1-methyl-1H-pyrazole-5-carboxylate] displayed a chromatographic logP in data set [1] (pH 3.4, log P (HCOOH)) of 3.7.
The same measure, in the same setting: then `CCOC(=O)C(=O)CC(=O)c1sc(-c2cncc(F)c2)nc1C` [Ethyl 4-[2-(5-fluoropyridin-3-yl)-4-methyl-1,3-thiazol-5-yl]-2,4-dioxobutanoate], with 3.37; and `COC(=O)c1cccc(-c2cnc(-c3cncc(F)c3)s2)n1` [Methyl 6-[2-(5-fluoropyridin-3-yl)-1,3-thiazol-5-yl]pyridine-2-carboxylate], with 2.37.
As for `CS(=O)(=O)NC(=O)c1cccc(-c2cn[nH]c2)n1` [N-(Methylsulphonyl)-6-(1H-pyrazol-4-yl)pyridine-2-carboxamide], the chromatographic logP in data set [1] (setting [2]) came out at 0.91.
On to `O=C(NS(=O)(=O)Cc1ccccc1)c1cccc(Br)n1` [XII-1], for which the chromatographic logP in data set [1] (setting [5]) turned out to be 2.4.
Same read-out and setting: the value for `CN(C)S(=O)(=O)NC(=O)c1cccc(Br)n1` [XII-2] was 1.82; that for `CS(=O)(=O)NC(=O)c1cccc(Cl)n1` [XII-3] was 1.15.
Consider `CS(=O)(=O)NC(=O)c1cccc(Br)n1` [XII-4, 6-Bromo-N-(methylsulphonyl)pyridine-2-carboxamide], for which the chromatographic logP in data set [1] (setting [2]) was 1.21; in data set [1] (setting [5]) it was 1.28.
Compound `CCS(=O)(=O)NC(=O)c1cccc(Br)n1` [XII-5] returned a chromatographic logP in data set [1] (setting [5]) of 1.54.
Same read-out and setting: then `O=C(NS(=O)(=O)c1ccccc1)c1cccc(Br)n1` [XII-6], with 2.32; and `O=C(NS(=O)(=O)C1CC1)c1cccc(Br)n1` [XII-7], with 1.7.
Turning to `Fc1cncc(-c2nccs2)c1` [XIII-1, 3-Fluoro-5-(1,3-thiazol-2-yl)pyridine], the figures for the chromatographic logP in data set [1] (setting [2]) and in data set [1] (setting [5]) were 1.48 and 1.51, respectively.
Compound `Clc1cncc(-c2nccs2)c1` [XIII-2] displayed a chromatographic logP in data set [1] (setting [5]) of 1.94.
In data set [1] (setting [5]), `c1ncc(-c2nccs2)cn1` [XIII-3] had a chromatographic logP of 0.69.
Still for that read-out and setting: the value for `N#Cc1cncc(-c2nccs2)c1` [XIII-4] was 1.34.
Regarding `CC(=O)NS(=O)(=O)c1cccc(Br)n1` [XIV-2, N-[(6-Bromopyridin-2-yl)sulphonyl]acetamide], the chromatographic logP in data set [1] (setting [2]) and in data set [1] (setting [5]) was 0.95 throughout.
In the case of `CS(=O)(=O)NC(=O)c1csc(Br)n1` [XV-1, 2-Bromo-N-(methylsulphonyl)-1,3-thiazole-4-carboxamide], the chromatographic logP in data set [1] (setting [2]) came out at 0.83; in data set [1] (setting [5]), 0.82.
As for `CS(=O)(=O)NC(=O)c1nc(Br)cs1` [XVI-1, 4-Bromo-N-(methylsulphonyl)-1,3-thiazole-2-carboxamide], the chromatographic logP in data set [1] (setting [2]) and in data set [1] (setting [5]) was 0.63 each time.
For `NS(=O)(=O)c1cccc(-c2cnn(-c3cccnc3)c2)n1` [XVII-1, 6-[1-(pyridin-3-yl)-1H-pyrazol-4-yl]pyridine-2-sulphonamide], the chromatographic logP in data set [1] (setting [2]) and in data set [1] (setting [5]) was 0.99 each time.
Compound `NS(=O)(=O)c1cccc(-c2cnn(-c3cncc(F)c3)c2)n1` [XVII-2] showed a chromatographic logP in data set [1] (setting [5]) of 1.44.
Turning to `NS(=O)(=O)c1cccc(-c2cnn(-c3cncnc3)c2)n1` [XVII-3], the chromatographic logP in data set [1] (pH 3.4, logP (HCOOH)) stood at 0.89.

Source of the values: US9044015B2, “Heterocyclic compounds as pesticides” (Bayer CropScience AG, priority 2010, dated 2015).
